{
  "source": "paper PMC9652379",
  "about": "“Safety evaluations of a synthetic antimicrobial peptide administered intravenously in rats and dogs” (Scientific Reports, 2022)",
  "key": {"Sprague Dawley rats": {"tested_on": "Sprague Dawley rats", "assay": "Dose range finding in rats: haematology, clinical biochemistry, urinalysis", "assay_type": "in vivo, rat", "conditions": "female rats, 7 days, mean ± SD", "method": "Clinical haematology, biochemistry and urinalysis parameters were evaluated in animals in Phase II at the end of the treatment period. A complete list of parameters is reported in Materials and Methods. Administration of SET-M33 at 10 and 20 mg/kg/day for 7 days caused a statistically significant decrease of reticulocytes in males and females. […] There were significant differences in other parameters, such as glucose (males at 10 and 20 mg/kg/day), cholesterol (males at 20 mg/kg/day), triglycerides (females at 20 mg/kg/day), electrolytes, total protein and albumin (males at 20 mg/kg/day). Increased urine volume and lower specific gravity compared to the control group was recorded in both sexes at both doses. […]\nBlood samples were drawn from the retro-orbital plexus of all animals under light isoflurane anaesthesia. […] The following parameters were determined using an ADVIA 120 haematology analyser (Siemens Healthcare): Red blood cell count (RBC), haemoglobin (Hb), haematocrit (Hct), mean corpuscular volume (MCV), mean corpuscular haemoglobin (MCH), mean corpuscular haemoglobin concentration (MCHC), reticulocyte count (absolute and relative) (Retic), platelet count (Plt), total leukocyte count (WBC), neutrophils (N), lymphocytes (L), monocytes (M), eosinophils (E), basophils (B), large unstained cells (LUC). […]"}, "beagle dogs": {"tested_on": "beagle dogs", "assay": "Four-week toxicity study in dogs: necroscopy, organ weights, microscopic findings", "assay_type": "in vivo, dog", "conditions": "for Kidney: degeneration/regeneration, tubules, minimal (incidence): 4-week dosing; for Kidney: regeneration, tubules, minimal (incidence): 4-week recovery period", "method": "These higher weights were correlated microscopically with minimal tubule degeneration/regeneration and minimal interstitial cell infiltrates. There were no other SET-M33-related organ weight changes (Table 6). There were no organ weight changes at recovery sacrifice, or macroscopic findings at terminal and recovery necroscopy. […] The kidney findings included minimal tubule degeneration/regeneration at 1.5 mg/kg/day and 4 mg/kg/day in males, and at 4.0 mg/kg/day in females, and minimal interstitial cell infiltrate in both sexes at a dose of 4.0 mg/kg/day. Degeneration featured vacuolation, cell sloughing and/or tinctorial change, and regeneration was characterized by increased basophilia, nuclear crowding and/or increased mitoses of cortical tubule epithelial cells. Regenerative changes were typically more pronounced than degenerative changes. SET-M33-related microscopic findings in kidney were correlated with higher kidney weights (absolute and relative to body and brain weight) and elevated BUN and creatinine in both sexes at 4.0 mg/kg/day. […] After the 4-week recovery period, kidney interstitial infiltrates cleared completely and tubule degeneration/regeneration resolved almost completely. At the infusion sites, there was complete recovery from vascular/perivascular inflammation and tunica intima hypertrophy/hyperplasia with partial recovery from vascular thrombi and hypertrophy/hyperplasia of the tunica media. Minimal regeneration of cortical tubule epithelial cells, observed in the kidneys of 1 female at a dose of 4.0 mg/kg/day, was considered to be due to a repair process, and a slight thrombus observed at the infusion site (saphenous vein) of another female was also in line with ongoing repair.\nComplete macroscopic examination was performed on all animals, including examination of the external surface and all orifices; the external surfaces of the brain and spinal cord; the organs and tissues of the cranial, thoracic, abdominal and pelvic cavities and neck; and the rest of the carcass for macroscopic morphological abnormalities. Necropsy was performed on up to 3 animals/sex/group after treatment for 4 weeks and on 2 animals/sex/group after a 4-week treatment-free recovery period. Organs and tissues were weighed, preserved and examined microscopically. Prior to weighing, organs were carefully dissected and properly trimmed to remove adipose and other contiguous tissue in a uniform manner. Organs were weighed as soon as possible after dissection in order to avoid drying. Paired organs were weighed together. Eyes, optic nerve and testes were initially placed in Modified Davidson’s solution and then kept in 10% neutral buffered formalin (NBF). Lungs and urinary bladder were infused with 10% NBF prior to immersion in a larger volume of the same fixative. All other tissues were preserved in 10% NBF."}},
  "note": "Positions of bridges follow the written chain, without caps; N, C: chain ends. Non-standard residues stand in square brackets, D forms with d. Residues, ends and D or L forms follow the SMILES beside them. Chains are numbered I, II in the order given. βAla = NCCC(=O)O",
  "data": [
    {"smiles": "CC[C@H](C)[C@H](NC(=O)[C@H](CCCCN)NC(=O)[C@@H](N)CCCCN)C(=O)N[C@@H](CCCNC(=N)N)C(=O)N[C@H](C(=O)N[C@@H](CCCNC(=N)N)C(=O)N[C@@H](CC(C)C)C(=O)N[C@@H](CO)C(=O)N[C@@H](C)C(=O)NCCCC[C@H](NC(=O)[C@H](C)NC(=O)[C@H](CO)NC(=O)[C@H](CC(C)C)NC(=O)[C@H](CCCNC(=N)N)NC(=O)[C@@H](NC(=O)[C@H](CCCNC(=N)N)NC(=O)[C@@H](NC(=O)[C@H](CCCCN)NC(=O)[C@@H](N)CCCCN)[C@@H](C)CC)C(C)C)C(=O)NCCCC[C@H](NC(=O)[C@H](CCCCNC(=O)[C@H](C)NC(=O)[C@H](CO)NC(=O)[C@H](CC(C)C)NC(=O)[C@H](CCCNC(=N)N)NC(=O)[C@@H](NC(=O)[C@H](CCCNC(=N)N)NC(=O)[C@@H](NC(=O)[C@H](CCCCN)NC(=O)[C@@H](N)CCCCN)[C@@H](C)CC)C(C)C)NC(=O)[C@H](C)NC(=O)[C@H](CO)NC(=O)[C@H](CC(C)C)NC(=O)[C@H](CCCNC(=N)N)NC(=O)[C@@H](NC(=O)[C@H](CCCNC(=N)N)NC(=O)[C@@H](NC(=O)[C@H](CCCCN)NC(=O)[C@@H](N)CCCCN)[C@@H](C)CC)C(C)C)C(=O)NCCC(=O)O)C(C)C", "note": "[SET-M33] (I: H-KKIRVRLSAKK[βAla]-OH / II: H-KKIRVRLSAK / III: H-KKIRVRLSA / IV: H-KKIRVRLSA; amide I:10-IV:C, I:11-II:C, II:10-III:C (inferred); N-terminus and C-terminus assumed)", "values": [
      {"measurement": "Phos, inorganic phosphorus", "setting": "Sprague Dawley rats; 10 mg/kg/day iv", "value": "1.96 ± 0.187", "unit": "mmol/L"},
      {"measurement": "Phos, inorganic phosphorus", "setting": "Sprague Dawley rats; 20 mg/kg/day iv", "value": "2.05 ± 0.26", "unit": "mmol/L"},
      {"measurement": "Infusion site (combined incidence, four sites): haemorrhage, vascular/perivascular, minimal", "setting": "beagle dogs; dog, in vivo, 0.5 mg/kg/day", "value": 1},
      {"measurement": "Infusion site (combined incidence, four sites): haemorrhage, vascular/perivascular, moderate", "setting": "beagle dogs; dog, in vivo, 0.5 mg/kg/day", "value": 0},
      {"measurement": "Infusion site (combined incidence, four sites): haemorrhage, vascular/perivascular, slight", "setting": "beagle dogs; dog, in vivo, 0.5 mg/kg/day", "value": 1},
      {"measurement": "Infusion site (combined incidence, four sites): haemorrhage, vascular/perivascular, total", "setting": "beagle dogs; dog, in vivo, 0.5 mg/kg/day", "value": 2},
      {"measurement": "Infusion site (combined incidence, four sites): hypertrophy/hyperplasia, tunica intima, minimal", "setting": "beagle dogs; dog, in vivo, 0.5 mg/kg/day", "value": 0},
      {"measurement": "Infusion site (combined incidence, four sites): hypertrophy/hyperplasia, tunica media, minimal", "setting": "beagle dogs; dog, in vivo, 0.5 mg/kg/day", "value": 0},
      {"measurement": "Infusion site (combined incidence, four sites): inflammation, vascular/perivascular, moderate", "setting": "beagle dogs; dog, in vivo, 0.5 mg/kg/day", "value": 0},
      {"measurement": "Infusion site (combined incidence, four sites): thrombus, blood vessels, high", "setting": "beagle dogs; dog, in vivo, 0.5 mg/kg/day", "value": 0},
      {"measurement": "Infusion site (combined incidence, four sites): thrombus, blood vessels, moderate", "setting": "beagle dogs; dog, in vivo, 0.5 mg/kg/day", "value": 0},
      {"measurement": "Kidney: infiltrate, interstitium, minimal (incidence)", "setting": "beagle dogs; dog, in vivo, 0.5 mg/kg/day", "value": 0},
      {"measurement": "Infusion site (combined incidence, four sites): haemorrhage, vascular/perivascular, slight", "setting": "beagle dogs; dog, in vivo, 1.5 mg/kg/day", "value": 0},
      {"measurement": "Infusion site (combined incidence, four sites): hypertrophy/hyperplasia, tunica intima, minimal", "setting": "beagle dogs; dog, in vivo, 1.5 mg/kg/day", "value": 0},
      {"measurement": "Infusion site (combined incidence, four sites): hypertrophy/hyperplasia, tunica media, minimal", "setting": "beagle dogs; dog, in vivo, 1.5 mg/kg/day", "value": 0},
      {"measurement": "Infusion site (combined incidence, four sites): inflammation, vascular/perivascular, moderate", "setting": "beagle dogs; dog, in vivo, 1.5 mg/kg/day", "value": 0},
      {"measurement": "Infusion site (combined incidence, four sites): thrombus, blood vessels, high", "setting": "beagle dogs; dog, in vivo, 1.5 mg/kg/day", "value": 0},
      {"measurement": "Infusion site (combined incidence, four sites): thrombus, blood vessels, minimal", "setting": "beagle dogs; dog, in vivo, 1.5 mg/kg/day", "value": 0},
      {"measurement": "Infusion site (combined incidence, four sites): thrombus, blood vessels, slight", "setting": "beagle dogs; dog, in vivo, 1.5 mg/kg/day", "value": 0},
      {"measurement": "Infusion site (combined incidence, four sites): haemorrhage, vascular/perivascular, moderate", "setting": "beagle dogs; dog, in vivo, 4 mg/kg/day", "value": 0},
      {"measurement": "Infusion site (combined incidence, four sites): hypertrophy/hyperplasia, tunica intima, minimal", "setting": "beagle dogs; dog, in vivo, 4 mg/kg/day", "value": 0},
      {"measurement": "Infusion site (combined incidence, four sites): hypertrophy/hyperplasia, tunica intima, slight", "setting": "beagle dogs; dog, in vivo, 4 mg/kg/day", "value": 0},
      {"measurement": "Infusion site (combined incidence, four sites): hypertrophy/hyperplasia, tunica intima, total", "setting": "beagle dogs; dog, in vivo, 4 mg/kg/day", "value": 0},
      {"measurement": "Infusion site (combined incidence, four sites): thrombus, blood vessels, minimal", "setting": "beagle dogs; dog, in vivo, 4 mg/kg/day", "value": 0},
      {"measurement": "Infusion site (combined incidence, four sites): thrombus, blood vessels, moderate", "setting": "beagle dogs; dog, in vivo, 4 mg/kg/day", "value": 5},
      {"measurement": "Kidney: degeneration/regeneration, tubules, minimal (incidence)", "setting": "beagle dogs; female dogs, 0.5 mg/kg/day", "value": 0},
      {"measurement": "Kidney: regeneration, tubules, minimal (incidence)", "setting": "beagle dogs; female dogs, 0.5 mg/kg/day", "value": 0},
      {"measurement": "Kidney: degeneration/regeneration, tubules, minimal (incidence)", "setting": "beagle dogs; female dogs, 1.5 mg/kg/day", "value": 0},
      {"measurement": "Kidney: regeneration, tubules, minimal (incidence)", "setting": "beagle dogs; female dogs, 1.5 mg/kg/day", "value": 0},
      {"measurement": "Kidney: degeneration/regeneration, tubules, minimal (incidence)", "setting": "beagle dogs; female dogs, 4.0 mg/kg/day", "value": 2},
      {"measurement": "Kidney: regeneration, tubules, minimal (incidence)", "setting": "beagle dogs; female dogs, 4.0 mg/kg/day", "value": 1},
      {"measurement": "Kidney: degeneration/regeneration, tubules, minimal (incidence)", "setting": "beagle dogs; male dogs, 0.5 mg/kg/day", "value": 2},
      {"measurement": "Kidney: regeneration, tubules, minimal (incidence)", "setting": "beagle dogs; male dogs, 0.5 mg/kg/day", "value": 0},
      {"measurement": "Kidney: degeneration/regeneration, tubules, minimal (incidence)", "setting": "beagle dogs; male dogs, 1.5 mg/kg/day", "value": 3},
      {"measurement": "Kidney: regeneration, tubules, minimal (incidence)", "setting": "beagle dogs; male dogs, 1.5 mg/kg/day", "value": 0},
      {"measurement": "Kidney: degeneration/regeneration, tubules, minimal (incidence)", "setting": "beagle dogs; male dogs, 4.0 mg/kg/day", "value": 0},
      {"measurement": "Kidney: regeneration, tubules, minimal (incidence)", "setting": "beagle dogs; male dogs, 4.0 mg/kg/day", "value": 0}
    ]}
  ]
}
